The subject of one experiment is AQP2 protein. To be noted: mice, lithium diet + clopidogrel 80 mg/kg bw/day 14 days. The protocol: The effect of administration of clopidogrel on lithium-induced polyuria was determined in mice (B6D2 genetic background). Groups of mice were administered either a lithium-containing diet (40 mmol/kg chow; custom prepared by MP Biomedicals, Aurora, Ohio) or lithium-containing diet plus clopidogrel (80 mg per kg body weight per day in drinking water) for 14 days. Twenty-four urine samples were collected prior to the start of the treatment (day 0), on days 8 and 9, and days 13 and 14. The data plotted in the graphs represent the mean of the values obtained on the two consecutive days. Results are mean±SE; n=5 for LI alone group and n=6 for LI+CLPD group; ANOVA followed by Tukey Kramer Multiple Comparison Test.

The subject of another experiment is lithium-treated rats. As to the kind of experiment: Effect of clopidogrel on lithium-induced alterations in rats (natriuresis, urinary nitrates/nitrites, hematocrit, body and kidney weight). Conditions: rats, 2 weeks. The protocol:
Animal experiments: Male Sprague-Dawley rats were purchased from Charles River (Wilmington, Mass., USA), and Brattleboro mutant rats that lack AVP (HsdBlu:BRAT-Avp^di) were obtained from the Rat Resource & Research Center (RRRC), University of Missouri, Columbia, Mo., USA. Mice (B6D2 genetic background) were bred in-house. […] Lithium-added chow (40 mmol Li/kg chow) was custom prepared (MP Biomedicals, Aurora, Ohio, USA). Clopidogrel bisulfate was administered orally by powdering and dissolving Plavix® tablets (Bristol-Myers Squibb, New York, N.Y., USA) in drinking water. The concentration of the drug in the drinking water was adjusted daily based on the water consumption of the animals the previous day. The clopidogrel dose used in Sprague-Dawley rats (20 mg/kg bw/day) was the same as used by other investigators (de La Crux et al, 2003; Graciano et al, 2008). In mice, clopidogrel was administered at a dose of 80 mg/kg bw/day. When compared with the human clinical dose of Plavix®, and adjusted to the Km factor (ratio of body surface area to body weight) of the species (man vs. rat or mouse) (Reagan-Shaw et al, 2007), the doses used in rats or mice were 2.5- and 5-fold higher, respectively. […] A higher dose of clopidogrel (40 mg/kg bw/day) was used in Brattleboro rats to ensure an unequivocal outcome whether positive or negative. Twenty-four hour urine samples were collected by placing the animals in the appropriate metabolic cages designed for rats and mice. Blood and kidney tissues were collected at necropsy. Cortical, outer and inner medullary regions of the kidneys were dissected out and processed for laboratory assays.
Blood, urine and tissue analysis: Osmolalities of clear urine samples were measured by vapor pressure method (Wescor, Logan, Utah, USA). Microhematocrit was determined by centrifuging free-flowing blood collected in heparinized capillary tubes in a microhematocrit centrifuge (Clay Adams, Parsippany, N.J., USA). Urinary excretion of AVP was quantified by a commercial ELISA kit (Enzo Life Sciences, Farmingdale, N.Y., USA). Total nitrate/nitrite contents of urine samples were determined by a commercial kit (Cayman Chemical, Ann Arbor, Mich.).Na, Li and K levels in serum and/or urine were determined on EasyElectrolyte® (Medica Corp., Bedford, Mass., USA). Based on serum and urine analysis, electrolyte-free clearance [CH20(e)] was computed using the formula CH20(e)=V((1−UNa+UK)/PNa), where V=urine volume, UNa and UK are urine Na and K, and PNa is plasma Na, respectively (Schrier 2006). Lithium levels in inner medullary tissue homogenates were assayed by Inductively Coupled Plasma-Mass Spectrometry (ICPMS) by Exova (Santa Fe Springs, Calif., USA), and were normalized to their respective protein contents.
Statistical Analysis: All quantitative data are expressed as mean±standard error (SE). Comparisons among the means of multiple groups were made by one-way analysis of variance (ANOVA), followed by the assessment of statistical significance by Tukey-Kramer Multiple Comparison Test or Student-Newman-Keuls Multiple Comparison Test. Differences between the means of two groups were determined by unpaired t test or where applicable, by Mann-Whitney nonparametric test. P values less than 0.05 were considered significant. GraphPad Instat® (GraphPad Software, Inc., La Jolla, Calif.) was used for statistical analysis.

Experiment [1] relates to lithium-induced polyuria in mice (B6D2 genetic background). To be noted: lithium diet + clopidogrel 80 mg/kg bw/day 14 days vs LI alone, P<0.05 or better. The protocol: Animal experiments: Male Sprague-Dawley rats were purchased from Charles River (Wilmington, Mass., USA), and Brattleboro mutant rats that lack AVP (HsdBlu:BRAT-Avpdi) were obtained from the Rat Resource & Research Center (RRRC), University of Missouri, Columbia, Mo., USA. Mice (B6D2 genetic background) were bred in-house. […] Lithium-added chow (40 mmol Li/kg chow) was custom prepared (MP Biomedicals, Aurora, Ohio, USA). Clopidogrel bisulfate was administered orally by powdering and dissolving Plavix® tablets (Bristol-Myers Squibb, New York, N.Y., USA) in drinking water. The concentration of the drug in the drinking water was adjusted daily based on the water consumption of the animals the previous day. The clopidogrel dose used in Sprague-Dawley rats (20 mg/kg bw/day) was the same as used by other investigators (de La Crux et al, 2003; Graciano et al, 2008). In mice, clopidogrel was administered at a dose of 80 mg/kg bw/day. When compared with the human clinical dose of Plavix®, and adjusted to the Km factor (ratio of body surface area to body weight) of the species (man vs. rat or mouse) (Reagan-Shaw et al, 2007), the doses used in rats or mice were 2.5- and 5-fold higher, respectively. […]
The effect of administration of clopidogrel on lithium-induced polyuria was determined in mice (B6D2 genetic background). […]

[2] abbreviates: lithium + clopidogrel (40 mg/kg bw/day per FIG. 11 legend).
Setting [3] is: lithium + clopidogrel (40 mg/kg bw/day per FIG. 12 legend).

Turning to `COC(=O)[C@H](c1ccccc1Cl)N1CCc2sccc2C1` [clopidogrel], in the experiment with AQP2 protein, the “lithium-induced decrease in AQP2 protein abundance in the renal medulla” value was “significantly prevented”. In the experiment on lithium-treated rats (setting [2]), the “lithium-induced increase in urinary NO3/NO2 (total nitrates/nitrites excretion)” value was “significantly ameliorated” and the “lithium-induced natriuresis (urinary sodium excretion)” value is reported as “modest effect”. Besides, in the experiment with lithium-treated rats (setting [3]), the “lithium-induced increase in terminal hematocrit” value is recorded as “reversed” and the “low gain in body weight due to lithium-treatment” value is “did not ameliorate”. In addition, the water intake result in experiment [1] is recorded as “significant decrease”.

The values above are taken from patent US9913831B2, “Methods and compositions for treating nephrogenic diabetes insipidus” (UNIVERSITY OF UTAH RESEARCH FOUNDATION, priority 2011, dated 2018).
